{"source": "patent US8609403B2", "about": "“Polynucleotide derived from novel hepatitis C virus strain and use thereof” (Tokyo Metropolitan Institute of Medical Science, priority 2009, dated 2013)"}
{"system": "HCV-RMT strain", "assay": "Evaluation of anti-HCV agents in Huh7 cells maintaining the RMT recombinant virus (triple mutation), HCV amount by real-time PCR", "format": "cell-based, hepatitis C virus", "conditions": "Huh7 cells 10 days after introduction of RMT-tri genome; agent added 16 hours after plating, total RNA purified 48 hours later; FIG. 8", "description": "E1202G or the 3 acclimation mutations (E1202G, E1056V and A2199T) was/were introduced to pRMTx, and the obtained vectors were designated pRMTx-E1202G and pRMTx-tri, respectively. From pRMTx, pRMTx-E1202G and pRMTx-tri, viral genomic RNAs were prepared (RMT, RMT-E1202G and RMT-tri, respectively), and 30 μg each of the prepared genomic RNAs were introduced to Huh7 cells by electroporation. The cells were plated on a culture dish and subcultured 3 to 4 times per week, during which the cell were sampled. From the sampled cells, total RNA was purified by the AGPC method, and the copy number of the HCV genome per 1 μg of the total RNA was quantified according to a conventional method (Takeuchi et al., Gastroenterology, 1999) by reverse transcription real-time PCR using QuantiTect Multiplex PCR kit (manufactured by Qiagen). Daily changes in the copy number of the HCV genome in the cells to which RMT-RNA, RMT-E1202G-RNA and RMT-tri-RNA were respectively introduced are shown in FIG. 7.\nFurther, 10 days after the introduction of the genome, the cells in the state where the HCV genome was maintained were plated on a 96-well plate, and an agent was added thereto 16 hours later, followed by purification of total RNA 48 hours later from each well using ABI prizm 6100 and a purification kit (manufactured by Applied Biosystems). The HCV amount in the RNA, which was obtained by the above real-time PCR, and the total RNA amount quantified using an absorption spectrophotometer are shown in FIG. 8. As anti-HCV agents, an HCV polymerase inhibitor (MK0608), HCV protease inhibitor (BILN2061), IFN-α and cyclophilin inhibitor (cyclosporin A) were used."}
{"compound": "COc1ccc2c(O[C@@H]3C[C@H]4C(=O)N[C@]5(C(=O)O)C[C@H]5/C=C\\CCCCC[C@H](NC(=O)OC5CCCC5)C(=O)N4C3)cc(-c3csc(NC(C)C)n3)nc2c1", "note": "[BILN2061]", "growth inhibition capacities against HCV": "almost the same as those described in documents"}
{"compound": "C[C@@]1(O)[C@H](O)[C@@H](CO)O[C@H]1n1ccc2c(N)ncnc21", "note": "[MK0608]", "growth inhibition capacities against HCV": "almost the same as those described in documents"}
{"compound": "IFN-α", "growth inhibition capacities against HCV": "almost the same as those described in documents"}
